Experimental data taken from patent publication US12459899B2, “Isoquinolinone derivatives, method for preparing the same, and pharmaceutical composition for preventing or treating poly(ADP-ribose) polymerase-1-related diseases, comprising the same as active ingredient” (DIGMBIO. INC., priority 2019, dated 2025).

What was measured:
[1] = target: PARP-1 (poly[ADP-ribose] polymerase 1) enzyme (Homo sapiens (Human), UniProt P09874); assay: PARP-1 (poly[ADP-ribose] polymerase 1) enzyme inhibitory ability, Trevigen assay kit; format: biochemical; conditions: for IC50: PARP-1 enzyme activity; for inhibition at 0.001 µM: 1 nM compound, read-out: PAR P-1 Inhibitory ability at 1 nM
Sequence of PARP-1 (poly[ADP-ribose] polymerase 1) enzyme (P09874 whole entry): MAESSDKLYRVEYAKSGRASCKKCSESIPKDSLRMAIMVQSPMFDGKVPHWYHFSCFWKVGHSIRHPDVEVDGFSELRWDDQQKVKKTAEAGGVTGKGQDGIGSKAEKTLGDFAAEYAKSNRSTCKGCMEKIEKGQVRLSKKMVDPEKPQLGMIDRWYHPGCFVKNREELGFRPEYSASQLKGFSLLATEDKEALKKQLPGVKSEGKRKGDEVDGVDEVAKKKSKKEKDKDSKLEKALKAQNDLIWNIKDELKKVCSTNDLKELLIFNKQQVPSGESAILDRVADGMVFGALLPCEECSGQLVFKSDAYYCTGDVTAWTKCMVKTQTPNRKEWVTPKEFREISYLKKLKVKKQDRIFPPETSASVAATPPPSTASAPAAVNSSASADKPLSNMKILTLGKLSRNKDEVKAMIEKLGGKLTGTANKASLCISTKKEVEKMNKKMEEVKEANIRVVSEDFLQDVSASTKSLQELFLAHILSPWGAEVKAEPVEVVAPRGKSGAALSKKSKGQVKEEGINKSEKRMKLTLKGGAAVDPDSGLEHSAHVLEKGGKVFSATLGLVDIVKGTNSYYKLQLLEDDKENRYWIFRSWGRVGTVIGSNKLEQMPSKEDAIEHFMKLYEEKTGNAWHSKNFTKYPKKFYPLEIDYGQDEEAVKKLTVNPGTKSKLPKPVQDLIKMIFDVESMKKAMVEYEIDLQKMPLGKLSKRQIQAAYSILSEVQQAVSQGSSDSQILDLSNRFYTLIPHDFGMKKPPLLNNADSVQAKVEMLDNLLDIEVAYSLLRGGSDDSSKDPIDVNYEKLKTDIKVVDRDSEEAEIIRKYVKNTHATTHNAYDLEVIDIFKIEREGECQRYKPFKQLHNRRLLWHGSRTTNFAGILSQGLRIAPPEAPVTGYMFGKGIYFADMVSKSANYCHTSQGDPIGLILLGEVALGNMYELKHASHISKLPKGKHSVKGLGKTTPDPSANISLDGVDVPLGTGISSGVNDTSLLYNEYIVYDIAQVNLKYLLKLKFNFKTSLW
Summary of the method: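 After the 1 hour PARP reaction, wells were washed with PBS containing 0.1% triton X-100 and then PBS. Strep-HRP (50 μL) was bound for 1 hour, wells washed again, and 50 μL of TACS-sapphire substrate developed 15 minutes in the dark. Reactions were stopped with 50 μL of 5% phosphoric acid and absorbance read at 450 nm on a Victor3 reader.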

[2] = test system: rat model for dry macular degeneration (sodium iodate); assay: Retinal layer protection of rats in sodium iodate model for dry macular degeneration; format: in vivo; conditions: 8-week-old rats, SI 50 mg/kg i.p., compound single intraperitoneal injection 15 mg/kg, H&E
Protocol: In order to evaluate the inhibitory effect (protective effect) of the compounds according to the present invention on reducing the thickness of the retinal layer of rats in dry macular degeneration-like cells, the following experiment was performed.
Specifically, 8-week-old rats were intraperitoneally injected with 50 mg/kg of sodium iodate (SI) to degenerate the retinal pigment epithelium and the photoreceptor cell layer to create a simulated animal model for dry macular degeneration. Retinal degeneration was observed 1 week after SI administration.
After a single intraperitoneal injection of Example 46 or Example 1 at a concentration of 15 mg/kg to the rat model for dry macular degeneration, the inhibitory effect (protective effect) on reducing the thickness of the retinal layer of the rats was evaluated.
In order to quantify the reduction of retinal thickness, the eyes extracted from the rats were fixed in a 4% glutaraldehyde solution for 3 hours and then embedded with paraffin. After preparing 5 μm-thick tissue fragments, the fragments were stained with a hematoxylin-eosin (H&E) solution and photographed with an optical microscope to measure the thickness of the retinal outer nuclear layer (ONL) of the retina. As a result, the thickness (μm) of the retinal ONL of the control group was calculated and expressed as 100% (n=3 times). […]

ARPE-19 cells = assay: Retinal pigment epithelial cell line protection, H2O2-induced apoptosis, MTS activity assay; format: cell-based, human; conditions: 0.5 mM H2O2, 6 hours
Protocol: In order to evaluate the protective effect of the compounds according to the present invention on the retinal pigment epithelial cell line under the condition of inducing dry macular degeneration-like apoptosis, the following experiment was performed.
Specifically, ARPE-19 cells, which is a human retinal pigment epithelial cell line, were cultured in DMEM:F12 (Dulbecco's Modified Eagle's Medium: Ham's nutrient mixture F-12) containing 10% fetal bovine serum (FBS) and 1% penicillin/streptomycin. The cells were aliquoted in a well plate so that the number of cells per well was 1×10^4, and incubated in a 37° C. CO2 incubator for 12 hours. DMSO (0.1%) (control group) alone or various concentrations of the compounds of Examples 1 to 276 according to the present invention (experimental groups) were treated in a medium mixed with 0.5 mM H2O2 (control group), and then, the cells were further cultured in a 37° C. CO2 incubator for 6 hours to induce apoptosis.
The degree of apoptosis was measured by an MTS (3-(4,5-dimethylthiazol-2-yl)-5-(3-carboxymethoxyphenyl)-2-(4-sulfophenyl)-2H-tetrazolium) activity assay method manufactured by Promega, the cell MTS activity level in the normal medium condition was set to 100%, and the relative degree of cell protection was converted and determined based on the MTS activity level of the control group in the 0.5 mM H2O2 treatment condition.
The MTS activity assay evaluation method is a method of measuring the activity of NADH dehydrogenase in mitochondria in cells, and MTS is reduced by NADH dehydrogenase to form colored formazan. Through this method, live cells can be quantified, and cell proliferation and apoptosis can be quantified. After the above-mentioned damage stimulus was treated to the retinal pigment epithelial cell line, 15 μL of MTS activity assay kit manufactured by Promega was added to each well, and then reacted in a 37° C. CO2 incubator for 2 hours. The reacted wells were quantified by measuring the absorbance at 450 nm using a microplate reader Victor 3 manufactured by PerkinElmer, Inc., and the results are shown in Table 4 below.

Structure (SMILES) | inhibition at 0.001 µM [1] | also measured
N#Cc1ccc(N2CCN(CCCc3cc4cccc(F)c4c(=O)[nH]3)CC2)cc1 [Example 1, 4-(4-(3-(8-fluoro-1-oxo-1,2-dihydroisoquinolin-3-yl)propyl)piperazin-1-yl)benzonitrile] | – | IC50 [1]: 2.3 nM; protection of retinal outer nuclear layer (ONL) thickness [2]: the retina was protected
N#Cc1ccc(C2=CCN(CCCc3cc4cccc(F)c4c(=O)[nH]3)CC2)nc1 [Example 46, 1′-(3-(8-fluoro-1-oxo-1,2-dihydroisoquinolin-3-yl)propyl)-1′,2′,3′,6′-tetrahydro-[2,4′-bipyridine]-5-carbonitrile] | 50 to 80% | IC50 [1]: 1.66 nM; protection of retinal outer nuclear layer (ONL) thickness [2]: the retina was protected
N#Cc1ccc(C2=CCN(C(=O)CCc3cc4cccc(F)c4c(=O)[nH]3)CC2)nc1 [Example 88, 1′-(3-(8-fluoro-1-oxo-1,2-dihydroisoquinolin-3-yl)propanoyl)-1′,2′,3′,6′-tetrahydro-[2,4′-bipyridine]-5-carbonitrile] | < 50% | EC50 (ARPE-19 cells; Homo sapiens, ARPE-19, 6 h): 629 nM
Cc1cc(F)cc2c(=O)[nH]c(CCC(=O)N3CC=C(c4ccc(C#N)cn4)CC3)cc12 [Example 165, 1′-(3-(7-fluoro-5-methyl-1-oxo-1,2-dihydroisoquinolin-3-yl)propanoyl)-1′,2′,3′,6′-tetrahydro-[2,4′-bipyridine]-5-carbonitrile] | < 50% | EC50 (ARPE-19 cells): 108 nM; EC50 (ARPE-19 cells; Homo sapiens, ARPE-19, 6 h): < 150 nM
O=c1[nH]c(CCCN2C3CCC2CN(c2ccc(Cl)cc2)C3)cc2ncccc12 [Example 228, 7-(3-(3-(4-chlorophenyl)-3,8-diazabicyclo[3.2.1]octan-8-yl)propyl)-1,6-naphthyridin-5(6H)-one] | 50 to 80% | EC50 (ARPE-19 cells): 144 nM; EC50 (ARPE-19 cells; Homo sapiens, ARPE-19, 6 h): < 150 nM
COC(=O)c1ccc(NC2CCN(C(=O)CCc3cc4c(C)cc(F)cc4c(=O)[nH]3)CC2)cc1 [Example 267, methyl 4-((1-(3-(7-fluoro-5-methyl-1-oxo-1,2-dihydroisoquinolin-3-yl)propanoyl)piperidin-4-yl)amino)benzoate] | < 50% | –
COC(=O)c1ccc(NC2CCN(C(=O)CCc3cc4c(C)ccc(F)c4c(=O)[nH]3)CC2)cc1 [Example 268, methyl 4-((1-(3-(8-fluoro-5-methyl-1-oxo-1,2-dihydroisoquinolin-3-yl)propanoyl)piperidin-4-yl)amino)benzoate] | < 50% | IC50 [1]: 8.59 nM
Cc1ccc(F)c2c(=O)[nH]c(CCC(=O)N3C4CCC3CC(O)C4)cc12 (stereo not shown) [Example 269, 8-fluoro-3-(3-(3-hydroxy-8-azabicyclo[3.2.1]octan-8-yl)-3-oxopropyl)-5-methylisoquinolin-1(2H)-one] | < 50% | –
Cc1ccc(F)c2c(=O)[nH]c(CCC(=O)N3CCC(O)CC3)cc12 [Example 270, 8-fluoro-3-(3-(4-hydroxypiperidin-1-yl)-3-oxopropyl)-5-methylisoquinolin-1(2H)-one] | < 50% | –
O=c1[nH]c(CCCN2C3CCC2CC(O)C3)cc2ncccc12 (stereo not shown) [Example 271, 7-(3-(3-hydroxy-8-azabicyclo[3.2.1]octan-8-yl)propyl)-1,6-naphthyridin-5(6H)-one] | < 50% | –
O=c1[nH]c(CCCN2C3CCC2CC(O)C3)cc2cccc(F)c12 (stereo not shown) [Example 272, 8-fluoro-3-(3-(3-hydroxy-8-azabicyclo[3.2.1]octan-8-yl)propyl)isoquinolin-1(2H)-one] | 50 to 80% | IC50 [1]: 3.27 nM
N#Cc1ccc(OC2CC3CCC(C2)N3CCCc2cc3cccc(F)c3c(=O)[nH]2)cc1 (stereo not shown) [Example 273, 4-((8-(3-(8-fluoro-1-oxo-1,2-dihydroisoquinolin-3-yl)propyl)-8-azabicyclo[3.2.1]octan-3-yl)oxy)benzonitrile] | < 50% | –
N#Cc1ccc(OC2CC3CCC(C2)N3C(=O)CCc2cc3cccc(F)c3c(=O)[nH]2)cc1 (stereo not shown) [Example 274, 4-((8-(3-(8-fluoro-1-oxo-1,2-dihydroisoquinolin-3-yl)propanoyl)-8-azabicyclo[3.2.1]octan-3-yl)oxy)benzonitrile] | < 50% | –
Cc1ccc(F)c2c(=O)[nH]c(CCC(=O)N3CC(NC(=O)C4CC4)C3)cc12 [Example 275, N-(1-(3-(8-fluoro-5-methyl-1-oxo-1,2-dihydroisoquinolin-3-yl)propanoyl)azetidin-3-yl)cyclopropanecarboxamide] | < 50% | –
Cc1ccc(F)c2c(=O)[nH]c(CCC(=O)N3CCC(NC(=O)C4CC4)CC3)cc12 [Example 276, N-(1-(3-(8-fluoro-5-methyl-1-oxo-1,2-dihydroisoquinolin-3-yl)propanoyl)piperidin-4-yl)cyclopropanecarboxamide] | < 50% | –
